Measurements taken from patent US20200101103A1, “REINFORCEMENT OF MUCUS BARRIER PROPERTIES” (CIRQLE BIOMEDICAL CONTRACEPTION IVS, priority 2017, published 2020).

test system: purified porcine gastric mucin; experiment: Effect of muco-adhesive amino acid polymers on mucin gels (light microscopy); details: 5 mg/mL polymer, 4 μl mucin drop, 3 min to 50 min of contact
Experimental: (§1) FIG. 7 illustrates the effect of low or high molecular weight muco-adhesive polymers on mucin gels. A 4 μl drop of purified porcine gastric mucin was placed in a solution of poly-L-arginine (PLA, DP 11 corresponding to 1.9 kDa, 5 mg/mL), poly-L-lysine (PLL, DP 11 corresponding to 1.6 kDa, 5 mg/mL), or poly-L-lysine (PLL, DP 400 corresponding to 66 kDa, 5 mg/mL). The drop of mucin was observed under the microscope (10x objective). The three images are taken after 3 min, 12 min 30, and 50 min of contact.
as §1, with “Effect” for “FIG. 7 illustrates the effect”, “(PLA,” for “(PLA, DP 11 corresponding to”, “(PLL,” for “(PLL, DP 11 corresponding to”, “(PLL,” for “(PLL, DP 400 corresponding to”, “(10×” for “(10x”

Substance | effect on mucin gel drop
poly-L-arginine [PLA, 1.9 kDa] | clearly crosslinks the mucin in depth
poly-L-lysine [PLL, 1.6 kDa] | clearly crosslinks the mucin in depth
poly-L-lysine [PLL, 66 kDa, reference compound] | changes the structure of the mucins drop and compacts it significantly
